The record followed here is US10087188B2, “Benzamide imidazopyrazine Btk inhibitors” (MERCK SHARP & DOHME CORP., priority 2014, dated 2018).

Experiment [1] has as its target BTK enzyme (recombinant full-length BTK, hBTK) (Homo sapiens (Human), UniProt Q06187). Nature of the experiment: Btk enzyme activity assay, LANCE TR-FRET. The class given is biochemical. The conditions noted are these: 50 pM hBTK, 2 μM biotin-A5-peptide, 25 μM ATP; 60 minute compound & enzyme incubation; read-out: BTK binding IC50. Here is the method:
Btk Enzyme Activity Assay Methods
BTK enzymatic activity was determined with the LANCE (Lanthanide Chelate Excite) TR-FRET (Time-resolved fluorescence resonance energy transfer) assay. […] After 60 minutes incubation with detection reagents, reaction plates were read on a PerkinElmer EnVision plate reader using standard TR-FRET protocol.

For experiment [2], the system named is HeLa cells. Nature of the experiment: [3H] Adenosine uptake assay. The class given is cell-based. The following applies: Homo sapiens, HeLa, accumulation of tritiated adenosine into HeLa cells; compound concentration range 10 μM to 0.032 nM; read-out: ADU inhibition IC50 (adenosine uptake inhibition potency). The method, boiled down:
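Accumulation of tritiated adenosine in adherent HeLa cells, detected by scintillant-plate coincidence counting, gives IC50 via 4-parameter robust fit. Compound (constant 0.25% DMSO) applied 30 min ahead, then 60 min radiolabel exposure (added from 500 nM solution), ambient conditions, HBSS with 5% FBS.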

Chain of BTK enzyme (recombinant full-length BTK, hBTK) (Q06187 whole entry): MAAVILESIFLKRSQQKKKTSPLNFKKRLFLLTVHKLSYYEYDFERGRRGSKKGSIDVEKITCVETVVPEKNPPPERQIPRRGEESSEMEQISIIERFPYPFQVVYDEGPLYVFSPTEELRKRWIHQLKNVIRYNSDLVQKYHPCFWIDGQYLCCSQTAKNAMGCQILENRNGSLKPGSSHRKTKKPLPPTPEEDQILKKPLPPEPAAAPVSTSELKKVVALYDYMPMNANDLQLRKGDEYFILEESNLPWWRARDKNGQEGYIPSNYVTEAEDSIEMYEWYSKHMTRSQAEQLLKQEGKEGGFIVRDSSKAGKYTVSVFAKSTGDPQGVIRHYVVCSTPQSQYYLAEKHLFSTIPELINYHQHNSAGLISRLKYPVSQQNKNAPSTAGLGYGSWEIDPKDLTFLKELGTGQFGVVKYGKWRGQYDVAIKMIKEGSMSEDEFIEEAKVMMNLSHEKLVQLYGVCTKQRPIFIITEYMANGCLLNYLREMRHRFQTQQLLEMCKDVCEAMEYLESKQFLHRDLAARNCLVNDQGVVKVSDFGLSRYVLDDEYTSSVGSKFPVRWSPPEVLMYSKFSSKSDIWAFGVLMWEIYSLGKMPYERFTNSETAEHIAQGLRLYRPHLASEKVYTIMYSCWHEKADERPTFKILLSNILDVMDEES

For the molecule `CCOc1cc(C(=O)Nc2cc(C(F)(F)F)ccn2)c(F)cc1-c1nc(C2(C)CCC(C)(C(=O)O)CC2)n2ccnc(N)c12` (centres unmarked) [Example 120, 4-[8-amino-1-(2-ethoxy-5-fluoro-4-{[4-(trifluoromethyl)pyridin-2-yl]carbamoyl}phenyl)imidazo[1,5-a]pyrazin-3-yl]-1,4-dimethylcyclohexane-carboxylic acid], the IC50 in experiment [1] is 4 nM; in experiment [2], 10000 nM.
The corresponding values for `C[C@H]1CO[C@@H](c2nc(-c3ccc(C(=O)Nc4cc(C(F)F)ccn4)cc3)c3c(N)nccn23)CN1[C@H]1CC[C@](C)(C(=O)O)CC1` [Example 206, trans-4-{(2R,5S)-2-[8-amino-1-(4-{[4-(difluoromethyl)pyridin-2-yl]carbamoyl}phenyl)imidazo [1,5-a]pyrazin-3-yl]-5-methylmorpholin-4-yl}-1-methylcyclohexanecarboxylic acid] are 1 nM and 10000 nM.
The corresponding values for `CC1(C(=O)O)CCC(C)(c2nc(-c3ccc(C(=O)Nc4cc(C(F)(F)F)ccn4)cc3)c3c(N)nccn23)C1` (centres unmarked) [Example 21, 3-(8-amino-1-(4-((4-(trifluoromethyl)pyridin-2-yl)carbamoyl)phenyl)imidazo[1,5-a]pyrazin-3-yl)-1,3-dimethylcyclopentanecarboxylic acid] are 0.27 nM and 1700 nM.
On the same counts, the results for `C[C@H]1CO[C@@H](c2nc(-c3ccc(C(=O)Nc4cc(C(F)F)ccn4)cc3)c3c(N)ncc(Cl)n23)CN1[C@H]1CC[C@](C)(C(=O)O)CC1` [Example 205, trans-4-{(2R,5S)-2-[8-amino-5-chloro-1-(4-{[4-(difluoromethyl)pyridin-2-yl]carbamoyl}phenyl)imidazo [1,5-a]pyrazin-3-yl]-5-methylmorpholin-4-yl}-1-methylcyclohexanecarboxylic acid] are 1.3 nM and 10000 nM.
Consider `Nc1nccn2c(C34CCCC(C(=O)O)(CC3)CC4)nc(-c3ccc(C(=O)Nc4cc(C(F)(F)F)ccn4)cc3)c12` [Example 68, 5-[8-amino-1-(4-{[4-(trifluoromethyl)pyridin-2-yl]carbamoyl}phenyl)imidazo[1,5-a]pyrazin-3-yl]bicyclo[3.2.2] nonane-1-carboxylic acid], for which the IC50 in experiment [1] was determined as 0.23 nM; in experiment [2], 274 nM.
Turning to `CCOc1cc(C(=O)Nc2cc(C(F)(F)F)ccn2)ccc1-c1nc([C@@H]2CC[C@](C)(C(=O)O)C2(C)C)n2ccnc(N)c12` [Example 84, (1S,3R)-3-[8-amino-1-(2-ethoxy-4-{[4-(trifluoromethyl)pyridin-2-yl]carbamoyl}phenyl)imidazo[1,5-a]pyrazin-3-yl]-1,2,2-trimethylcyclopentane carboxylic acid], the 50% inhibitory concentration (IC50) in experiment [1] is 0.45 nM; in experiment [2], 7350 nM.
Consider `Nc1nccn2c(N3CC[C@H](C(=O)O)C3)nc(-c3ccc(C(=O)Nc4cc(C(F)(F)F)ccn4)cc3)c12` [Example 39, (3S)-1-[8-amino-1-(4-{[4-(trifluoromethyl)pyridin-2-yl]carbamoyl}phenyl)imidazo[1,5-a]pyrazin-3-yl]pyrrolidine-3-carboxylic acid], for which the IC50 was 0.91 nM in experiment [1] and 10000 nM in experiment [2].
On the same counts, the results for `Nc1nccn2c(-c3ccc(F)c(C(=O)O)c3)nc(-c3ccc(C(=O)Nc4cc(C(F)(F)F)ccn4)cc3)c12` [Example 24, 5-[8-amino-1-(4-{[4-(trifluoromethyl)pyridin-2-yl]carbamoyl}phenyl)imidazo[1,5-a]pyrazin-3-yl]-2-fluorobenzoic acid] are 1 nM and 10000 nM.
As for `CCOc1cc(C(=O)Nc2cc(C(F)(F)F)ccn2)ccc1-c1nc(C23CCC(C(=O)O)(CC2)CC3)n2c(F)cnc(N)c12` [Example 173, 4-[8-amino-1-(2-ethoxy-4-{[4-(trifluoromethyl)pyridin-2-yl]carbamoyl}phenyl)-5-fluoroimidazo[1,5-a]pyrazin-3-yl]bicyclo[2.2.2] octane-1-carboxylic acid], the half-maximal inhibitory concentration (IC50) in experiment [1] stood at 2 nM; in experiment [2], 10000 nM.
Take `CC1(C)[C@H](c2nc(-c3ccc(C(=O)Nc4cc(C(F)(F)F)ccn4)cc3Cl)c3c(N)nccn23)CC[C@]1(C)C(=O)O` [Example 129, (1S,3R)-3-[8-amino-1-(2-chloro-4-{[4-(trifluoromethyl)pyridin-2-yl]carbamoyl}phenyl)imidazo[1,5-a]pyrazin-3-yl]-1,2,2-trimethylcyclopentane carboxylic acid]: the values for the half-inhibitory concentration (IC50) in experiment [1] and in experiment [2] were 0.59 nM and 5200 nM, respectively.
The corresponding values for `C[C@@]1(C(=O)O)CC[C@](C)(c2nc(-c3ccc(C(=O)Nc4cc(C(F)(F)F)ccn4)cc3)c3c(N)nccn23)C1` [Example 81, (1R.3S)-3-[8-amino-1-(4-{[4-(trifluoromethyl)pyridin-2-yl]carbamoyl}phenyl)imidazo[1,5-a]pyrazin-3-yl]-1,3-dimethylcyclopentane carboxylic acid] are 8.2 nM and 10000 nM.
The corresponding values for `CCOc1cc(C(=O)Nc2cc(C(F)(F)F)ccn2)ccc1-c1nc(C2(C)CCC(C)(C(=O)O)C2)n2ccnc(N)c12` (centres unmarked) [Example 22, 3-(8-amino-1-(2-ethoxy-4-((4-(trifluoromethyl)pyridin-2-yl)carbamoyl)phenyl)imidazo[1,5-a]pyrazin-3-yl)-1,3-dimethylcyclopentanecarboxylic acid] are 0.66 nM and 6290 nM.
For the molecule `Nc1nccn2c([C@@H]3CC[C@H](CC(=O)O)C3)nc(-c3ccc(C(=O)Nc4cc(C(F)(F)F)ccn4)cc3)c12` [Example 54, {(1S,3R)-3-[8-amino-1-(4-{[4-(trifluoromethyl)pyridin-2-yl]carbamoyl}phenyl)imidazo[1,5-a]pyrazin-3-yl]cyclopentyl}acetic acid], the values for the IC50 in experiment [1] and in experiment [2] were 0.18 nM and 10000 nM, respectively.
On the same counts, the results for `Nc1nccn2c(-c3ccc(C(=O)O)c(F)c3)nc(-c3ccc(C(=O)Nc4cc(C(F)(F)F)ccn4)cc3)c12` [Example 25, 4-[8-amino-1-(4-{[4-(trifluoromethyl)pyridin-2-yl]carbamoyl}phenyl)imidazo[1,5-a]pyrazin-3-yl]-2-fluorobenzoic acid] are 1.7 nM and 6110 nM.
On the same counts, the results for `Nc1nccn2c(-c3ccc(C(=O)O)nc3)nc(-c3ccc(C(=O)Nc4cc(C(F)(F)F)ccn4)cc3)c12` [Example 29, 5-[8-amino-1-(4-{[4-(trifluoromethyl)pyridin-2-yl]carbamoyl}phenyl)imidazo[1,5-a]pyrazin-3-yl]pyridine-2-carboxylic acid] are 11.3 nM and 7500 nM.
The corresponding values for `CCOc1cc(C(=O)Nc2cc(C(F)(F)F)ccn2)ccc1-c1nc(C2CCC(C)(C(=O)O)CC2)n2c(Cl)cnc(N)c12` (centres unmarked) [Example 165, 4-[8-amino-5-chloro-1-(2-ethoxy-4-{[4-(trifluoromethyl)pyridin-2-yl]carbamoyl}phenyl)imidazo[1,5-a]pyrazin-3-yl]-1-methylcyclohexane-carboxylic acid] are 4.4 nM and 10000 nM.
`CC1(C(=O)O)CCC(c2nc(-c3ccc(C(=O)Nc4cc(C(F)(F)F)ccn4)cc3F)c3c(N)ncc(Cl)n23)CC1` (centres unmarked) [Example 163, 4-[8-amino-5-chloro-1-(2-fluoro-4-{[4-(trifluoromethyl)pyridin-2-yl]carbamoyl}phenyl)imidazo[1,5-a]pyrazin-3-yl]-1-methylcyclohexane-carboxylic acid]: the IC50 in experiment [1] was 1.9 nM; in experiment [2], 6760 nM.
Take `Nc1nccn2c(C34CCC(C(=O)O)(CC3)CC4)nc(-c3ccc(C(=O)Nc4cc(C5CC5)ccn4)cc3)c12` [Example 169, 4-(8-amino-1-{4-[(4-cyclopropylpyridin-2-yl)carbamoyl]phenyl}imidazo[1,5-a]pyrazin-3-yl)bicyclo[2.2.2] octane-1-carboxylic acid]: the half-inhibitory concentration (IC50) in experiment [1] is 0.19 nM; in experiment [2] it was 276 nM.
The corresponding values for `CCOc1cc(C(=O)Nc2cc(C(F)(F)F)ccn2)ccc1-c1nc([C@@H]2C[C@H]3CC[C@@H](C2)[C@H]3C(=O)O)n2ccnc(N)c12` [Example 105, (3-exo,8-syn)-3-[8-amino-1-(2-ethoxy-4-{[4-(trifluoromethyl)pyridin-2-yl]carbamoyl}phenyl)imidazo[1,5-a]pyrazin-3-yl]bicyclo[3.2.1] octane-8-carboxylic acid] are 1.9 nM and 10000 nM.
On the same counts, the results for `C[C@]1(C(=O)O)CC[C@](C)(c2nc(-c3ccc(C(=O)Nc4cc(C(F)(F)F)ccn4)cc3)c3c(N)nccn32)CC1` [Example 30, trans-4-(8-amino-1-(4-((4-(trifluoromethyl)pyridin-2-yl)carbamoyl)phenyl)imidazo[1,5-a]pyrazin-3-yl)-1,4-dimethylcyclohexanecarboxylic acid] are 0.74 nM and 1450 nM.
The corresponding values for `CC(C)[C@]1(C(=O)O)CC[C@H](c2nc(-c3ccc(C(=O)Nc4cc(C(F)(F)F)ccn4)cc3Cl)c3c(N)nccn23)C1` [Example 92, (1S,3S)-3-[8-amino-1-(2-chloro-4-{[4-(trifluoromethyl)pyridin-2-yl]carbamoyl}phenyl)imidazo[1,5-a]pyrazin-3-yl]-1-(1-methylethyl) cyclopentane-carboxylic acid] are 0.51 nM and 3240 nM.
Consider `CCOc1cc(C(=O)Nc2cc(C(F)(F)F)ccn2)ccc1-c1nc([C@]2(C)CC[C@@](C)(C(=O)O)C2)n2ccnc(N)c12` [Example 85, (1R,3R)-3-[8-amino-1-(2-ethoxy-4-{[4-(trifluoromethyl)pyridin-2-yl]carbamoyl}phenyl)imidazo[1,5-a]pyrazin-3-yl]-1,3-dimethylcyclopentane carboxylic acid], for which the IC50 in experiment [1] was found to be 1.4 nM; in experiment [2], 10000 nM.

The term IC50 denotes the concentration that inhibits the measured activity by half.
